Assay results reported in patent publication US10035806B2, “Derivatized corroles and metallocorroles and their use as imaging and therapeutic agents” (CALIFORNIA INSTITUTE OF TECHNOLOGY, priority 2015, dated 2018).

What was measured:
[1] = tested on: 60 human tumor cell lines (NCI60); experiment: NCI60 anticancer drug screen, whole panel; type: cell-based; conditions: 10 μM, 48 h
Excerpt: (§1) The aminocaproate-substituted corrole Complex 3 was submitted to NCI for cytotoxic screening at a single high dose (10−5M) in a panel of 60 human tumor cell lines (NCI60). Details of the cytotoxicity assessment in the NCI anticancer drug screen have been described previously, in Monks A, et al. (1991) Feasibility of a high-flux anticancer drug screen using a diverse panel of cultured human tumor cell lines. J Natl Cancer Inst 83(11):757-766, this reference being incorporated by reference for these teachings.
In view of the promising results observed for carboxylated corroles, Complex 3 was selected for expanded cell screening to uncover additional susceptible cancer cell lines. The cytotoxic activity of Complex 3 was tested at a dose of 10^−5 M against 60 human cancer cell lines representing nine distinct tumor types in the anticancer screening program of the National Cancer Institute (NCI). The in vitro parameters for cytotoxicity, growth percent, and lethality were obtained for Complex 3 and reported as a mean graph of the percent growth of treated cells (FIG. 7). Bars in the mean graph depict the deviation of individual tumor cell lines from the overall mean value for all cells tested. Bars that project to the right of the mean represent cell lines that are more sensitive to Complex 3, whereas cell lines less sensitive to the compound display bars that project to the left. […]

BT-549 = experiment: NCI60 anticancer drug screen; type: cell-based, human; conditions: BT-549 (Breast Cancer), 10 μM, 48 h
Excerpt: as §1
(§2) In view of the promising results observed for carboxylated corroles, Complex 3 was selected for expanded cell screening to uncover additional susceptible cancer cell lines. The cytotoxic activity of Complex 3 was tested at a dose of 10^−5 M against 60 human cancer cell lines representing nine distinct tumor types in the anticancer screening program of the National Cancer Institute (NCI). The in vitro parameters for cytotoxicity, growth percent, and lethality were obtained for Complex 3 and reported as a mean graph of the percent growth of treated cells (FIG. 7). Bars in the mean graph depict the deviation of individual tumor cell lines from the overall mean value for all cells tested. Bars that project to the right of the mean represent cell lines that are more sensitive to Complex 3, whereas cell lines less sensitive to the compound display bars that project to the left.
(§3) The numerical values associated with this assay represent growth relative to the no-drug control and the numbers of cells at time 0 (FIG. 7). This allows detection of both growth inhibition (values between 0 and 100) and lethality (values less than 0). For example, a value of 100 signifies no growth inhibition, 40 means 60% growth inhibition, 0 means no net growth over the course of the experiment, −40 means 40% lethality, and −100 indicates all cells are dead. […] Growth inhibitions reflect cytostatic activity of the compound as previously shown for Complex 2. In contrast, cell lethality is only evident in melanoma cells, specifically the LOX IMVI and SK-MEL-28 cell lines.

CAK-1 = experiment: NCI60 anticancer drug screen; type: cell-based, human; conditions: CAK-1 (Renal Cancer), 10 μM, 48 h
Excerpt: as §1, §2, §3

CCRF-CEM = experiment: NCI60 anticancer drug screen; type: cell-based, human; conditions: CCRF-CEM (Leukemia), 10 μM, 48 h
Excerpt: as §1, §2, §3

COLO 205 = experiment: NCI60 anticancer drug screen; type: cell-based, human; conditions: COLO 205 (Colon cancer), 10 μM, 48 h
Excerpt: as §1, §2, §3

EKVX = experiment: NCI60 anticancer drug screen; type: cell-based, human; conditions: EKVX (Non-small-cell lung cancer), 10 μM, 48 h
Excerpt: as §1, §2, §3

HCC-2998 = experiment: NCI60 anticancer drug screen; type: cell-based, human; conditions: HCC-2998 (Colon cancer), 10 μM, 48 h
Excerpt: as §1, §2, §3

HCT-116 = experiment: NCI60 anticancer drug screen; type: cell-based, human; conditions: HCT-116 (Colon cancer), 10 μM, 48 h
Excerpt: as §1, §2, §3

HL-60 (TB) = experiment: NCI60 anticancer drug screen; type: cell-based, human; conditions: HL-60 (TB) (Leukemia), 10 μM, 48 h
Excerpt: as §1, §2, §3

HPO-92 = experiment: NCI60 anticancer drug screen; type: cell-based, human; conditions: HPO-92 (Non-small-cell lung cancer), 10 μM, 48 h
Excerpt: as §1, §2, §3

IGROV1 = experiment: NCI60 anticancer drug screen; type: cell-based, human; conditions: IGROV1 (Ovarian Cancer), 10 μM, 48 h
Excerpt: as §1, §2, §3

KM12 = experiment: NCI60 anticancer drug screen; type: cell-based, human; conditions: KM12 (Colon cancer), 10 μM, 48 h
Excerpt: as §1, §2, §3

M14 = experiment: NCI60 anticancer drug screen; type: cell-based, human; conditions: M14 (Melanoma), 10 μM, 48 h
Excerpt: as §1, §2, §3

MALME-3M = experiment: NCI60 anticancer drug screen; type: cell-based, human; conditions: MALME-3M (Melanoma), 10 μM, 48 h
Excerpt: as §1, §2, §3

MDA-MB-468 = experiment: NCI60 anticancer drug screen; type: cell-based, human; conditions: MDA-MB-468 (Breast Cancer), 10 μM, 48 h
Excerpt: as §1, §2, §3

NCI-H322M = experiment: NCI60 anticancer drug screen; type: cell-based, human; conditions: NCI-H322M (Non-small-cell lung cancer), 10 μM, 48 h
Excerpt: as §1, §2, §3

NCI-H460 = experiment: NCI60 anticancer drug screen; type: cell-based, human; conditions: NCI-H460 (Non-small-cell lung cancer), 10 μM, 48 h
Excerpt: as §1, §2, §3

NCl/ADR-RES = experiment: NCI60 anticancer drug screen; type: cell-based, human; conditions: NCl/ADR-RES (Ovarian Cancer), 10 μM, 48 h
Excerpt: as §1, §2, §3

OVCAR-3 = experiment: NCI60 anticancer drug screen; type: cell-based, human; conditions: OVCAR-3 (Ovarian Cancer), 10 μM, 48 h
Excerpt: as §1, §2, §3

OVCAR-4 = experiment: NCI60 anticancer drug screen; type: cell-based, human; conditions: OVCAR-4 (Ovarian Cancer), 10 μM, 48 h
Excerpt: as §1, §2, §3

OVCAR-8 = experiment: NCI60 anticancer drug screen; type: cell-based, human; conditions: OVCAR-8 (Ovarian Cancer), 10 μM, 48 h
Excerpt: as §1, §2, §3

RPMI-8226 = experiment: NCI60 anticancer drug screen; type: cell-based, human; conditions: RPMI-8226 (Leukemia), 10 μM, 48 h
Excerpt: as §1, §2, §3

SF-268 = experiment: NCI60 anticancer drug screen; type: cell-based, human; conditions: SF-268 (CNS Cancer), 10 μM, 48 h
Excerpt: as §1, §2, §3

SK-MEL-2 = experiment: NCI60 anticancer drug screen; type: cell-based, human; conditions: SK-MEL-2 (Melanoma), 10 μM, 48 h
Excerpt: as §1, §2, §3

SNB-75 = experiment: NCI60 anticancer drug screen; type: cell-based, human; conditions: SNB-75 (CNS Cancer), 10 μM, 48 h
Excerpt: as §1, §2, §3

SR = experiment: NCI60 anticancer drug screen; type: cell-based, human; conditions: SR (Leukemia), 10 μM, 48 h
Excerpt: as §1, §2, §3

UACC-257 = experiment: NCI60 anticancer drug screen; type: cell-based, human; conditions: UACC-257 (Melanoma), 10 μM, 48 h
Excerpt: as §1, §2, §3

UO-31 = experiment: NCI60 anticancer drug screen; type: cell-based, human; conditions: UO-31 (Renal Cancer), 10 μM, 48 h
Excerpt: as §1, §2, §3

Compound: O=C(O)CCCCCNc1c(F)c(F)c(C2=C3C=CC4=[N+]3[Ga-]35[n]6c2ccc6C(c2c(F)c(F)c(F)c(F)c2F)=c2ccc([n]23)=C(c2c(F)c(F)c(F)c(F)c2F)c2ccc4[n]25)c(F)c1F (centres unmarked) [Complex 3]
- activity against all NCI60 cell lines derived from nine tumor types [1]: highly active
- average growth inhibition ([1]; NCI60 panel): 70%
- Growth inhibition, % (BT-549): 73.0%
- Growth inhibition, % (CAK-1): 71.7%
- Growth inhibition, % (CCRF-CEM): 91.1%
- Growth inhibition, % (COLO 205): 51.7%
- Growth inhibition, % (EKVX): 59.7%
- Growth inhibition, % (HCC-2998): 60.1%
- Growth inhibition, % (HCT-116): 75.5%
- Growth inhibition, % (HL-60 (TB)): 86.1%
- Growth inhibition, % (HPO-92): 81.6%
- Growth inhibition, % (IGROV1): 55.7%
- Growth inhibition, % (KM12): 80.6%
- Growth inhibition, % (M14): 84.1%
- Growth inhibition, % (MALME-3M): 50.4%
- Growth inhibition, % (MDA-MB-468): 86.3%
- Growth inhibition, % (NCI-H322M): 32.9%
- Growth inhibition, % (NCI-H460): 94.2%
- Growth inhibition, % (NCl/ADR-RES): 52.7%
- Growth inhibition, % (OVCAR-3): 75.9%
- Growth inhibition, % (OVCAR-4): 59.9%
- Growth inhibition, % (OVCAR-8): 67.3%
- Growth inhibition, % (RPMI-8226): 70.2%
- Growth inhibition, % (SF-268): 65.8%
- Growth inhibition, % (SK-MEL-2): 64.1%
- Growth inhibition, % (SNB-75): 30.7%
- Growth inhibition, % (SR): 87.5%
- Growth inhibition, % (UACC-257): 37.2%
- Growth inhibition, % (UO-31): 64.7%
